What was measured:
human SGLT2 = biological target: T1, human SGLT2 (Homo sapiens, UniProt P31639); assay: Inhibitory activity against methyl-α-D-glucopyranoside uptake, CHO cells stably expressing human SGLT2; type: cell-based; details: inhibition of SGLT2, Table 2-1; read-out: IC50 value
T1 construct: expressed in transfected cells; host or cells: CHO-K1
T1 sequence (P31639 1-672): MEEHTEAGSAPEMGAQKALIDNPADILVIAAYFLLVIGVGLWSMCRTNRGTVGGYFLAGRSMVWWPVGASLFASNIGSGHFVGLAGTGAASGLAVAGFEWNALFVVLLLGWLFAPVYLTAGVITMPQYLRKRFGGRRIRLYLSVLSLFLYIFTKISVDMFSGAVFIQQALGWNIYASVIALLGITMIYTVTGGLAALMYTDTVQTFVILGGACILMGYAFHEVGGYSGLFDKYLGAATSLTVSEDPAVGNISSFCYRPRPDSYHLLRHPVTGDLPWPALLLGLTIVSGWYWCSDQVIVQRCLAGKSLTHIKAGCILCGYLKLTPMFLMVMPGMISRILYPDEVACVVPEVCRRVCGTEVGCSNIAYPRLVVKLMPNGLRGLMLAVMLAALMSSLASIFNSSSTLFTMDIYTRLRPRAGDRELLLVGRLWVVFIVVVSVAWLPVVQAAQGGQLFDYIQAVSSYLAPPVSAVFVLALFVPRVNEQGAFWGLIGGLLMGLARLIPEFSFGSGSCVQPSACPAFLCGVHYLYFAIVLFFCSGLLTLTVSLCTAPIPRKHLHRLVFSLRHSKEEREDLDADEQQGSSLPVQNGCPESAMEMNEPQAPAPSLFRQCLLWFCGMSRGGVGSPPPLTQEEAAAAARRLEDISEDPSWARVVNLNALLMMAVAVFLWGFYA
Description: Evaluation of inhibitory activity against methyl-α-D-glucopyranoside uptake of human Na^+-glucose cotransporter (SGLT1 and SGLT2)
2) Construction of Human SGLT2 Expression Vector
Human SGLT2 cDNA was amplified by PCR with a cDNA library derived from human kidney (Clontech) as a template, synthetic DNA primers and KOD+ DNA Polymerase. The amplified cDNA was inserted into pcRII-Topo vector by using a Topo TA Cloning Dual Promoter kit. E. coli competent cells (TPO10) were transformed with the plasmid vector, cultured in LB medium containing ampicillin (50 mg/L) to grow ampicillin-resistant clones. The plasmid vector containing human SGLT2 cDNA was purified from the clone in a standard manner. Human SGLT2 cDNA added restriction enzyme recognition sites (Xho I at 5′-end, Hind III at 3′-end) was amplified by PCR with the plasmid vector as a template, synthetic DNA primers containing an additional restriction enzyme recognition site and KOD+ DNA Polymerase. This amplified cDNA was digested with Xho I and Hind III, and ligated into expression vector pcDNA3.1(−) digested with Xho I and Hind III by using a Rapid DNA Ligation kit. E. coli competent cells (DH5α) were transformed with the ligated expression vector and grown in ampicillin-containing LB medium. Human SGLT2 expression vector was purified from the ampicillin-resistant clone in a standard manner.
3) Establishment of Cell Lines Stably Expressing Human SGLT1 or Human SGLT2
The human SGLT1 expression vector or the human SGLT2 expression vector was digested with the restriction enzyme Pvu I and transfected into CHO-Kl cells with FuGENE (Roche Diagonostics). After the transfection, the cells were cultured at 37° C. in the presence of 5% CO2 for about 3 weeks in DMEM medium (Gibco) containing penicillin (50 U/mL, SIGMA), streptomycin (50 mg/L, SIGMA), geneticin (200 mg/L, Nacalai Tesque, Inc., Japan) and 20% fetal bovine serum to obtain geneticin-resistant clones. Among these clones, clones stably expressing human SGLT1 or human SGLT2 were selected by the evaluating the sodium-dependent uptake activity of sugar (methyl-α-D-glucopyranoside).
4) Evaluation of Inhibitory Activity Against methyl-α-D-glucopyranoside uptake
Cell lines stably expressing human SGLT1 or human SGLT2 CHO were seeded in 96-well culture plates at a density of 30000 to 40000 cells/well and cultured for 4 to 6 days. The medium in these plates was removed and replaced by 150 μL/well pretreatment buffer (i.e., a buffer containing 140 mM choline chloride, 2 mM potassium chloride, 1 mM calcium chloride, 1 mM magnesium chloride, 10 mM 2-[4-(2-hydroxyethyl)-1-piperazinyl]ethanesulfonic acid and tris(hydroxymethyl)aminomethane, pH 7.4), and the plates were incubated at 37° C. for 20 minutes. The pretreatment buffer in the plates was removed, replaced by 50 μL/well fresh pretreatment buffer, and the plates were incubated at 37° C. for 20 minutes. Methyl-α-D-(U—^14C)glucopyranoside (6.3 mL, Amersham Pharmacia Biotech, 200 mCi/L) was added to and mixed with 100 mL buffer (i.e., a buffer containing 140 mM sodium chloride, 2 mM potassium chloride, 1 mM calcium chloride, 1 mM magnesium chloride, 1 mM methyl-α-D-glucopyranoside, 10 mM [4-(2-hydroxyethyl)-1-piperazinyl]ethanesulfonic acid and tris(hydroxymethyl)aminomethane, pH 7.4), which was used as uptake buffer. Test compounds were dissolved into uptake buffer and these test compound solutions were used for evaluating inhibitory activity. Uptake buffer without a test compound was used as a control solution. Moreover, for use in measuring baseline uptake in the absence of sodium, sodium-free solution was prepared in the same manner to contain 140 mM choline chloride instead of sodium chloride. The pretreatment buffer was removed from each well of the plates and replaced by 35 μL/well test compound solutions, control solution or sodium-free solution, and the plates were incubated at 37° C. for 45 minutes. […]

db/db mice = assay: Study for glucose lowering effect in db/db mouse; type: in vivo; details: Mus musculus, po, 0.3 mg/kg administration, 6 hours, read-out: reduction of blood glucose 6 hours after administration
Description: Study for Glucose Lowering Effect in dB/dB Mouse
A study for glucose lowering effect was conducted using db/db mice (purchased from Clea Japan, Inc., male, 9 to 11 weeks old), type 2 diabetic model mice. On the day of the study, body weights and blood glucose levels were measured prior to the start of testing. Measurement of the blood glucose levels was performed using a simple blood glucose meter (manufactured by Bayer HealthCare, Dexter-Z II). The mice were allocated to some groups consisting of 5 mice each so that homogeneity of body weights or blood glucose levels among groups would be ensured. Blood collection was carried out by making an incision on the tip of the tail and taking the blood therefrom. On the day of the study, the test compounds were suspended in 0.5% carboxymethylcellulose solution (CMC solution), and the dosing solutions of which concentration was adjusted to either 0.3 mg/10 mL or 3 mg/10 mL were prepared. The dosing solutions were orally administered by gavage for mice in 10 mL/kg. To the control group, only a 0.5% CMC solution was orally administered in 10 mL/kg. Blood was collected prior to or sequentially after administration of test compounds by above method. The blood glucose levels were determined using a hexokinase method (AutoSera S GLU, manufactured by Daiichi Pure Chemicals Co., Ltd.). A percent reduction of blood glucose relative to control group at each time point after administration of test compounds was calculated by the following equation.
Percent reduction of blood glucose (%)={blood glucose level in the control group (mg/dL)-blood glucose level in the test compound group (mg/dL)}/blood glucose level in the control group (mg/dL)×100

SMILES: Cc1cc2c(cc1Cc1ccc(OC(F)(F)F)cc1)[C@]1(OC2)O[C@H](CO)[C@@H](O)[C@H](O)[C@H]1O [Example 27, (1S,3′R,4′S,5′S,6′R)-6-[(4-trifluoromethoxyphenyl)methyl]-3′,4′,5′,6′-tetrahydro-6′-(hydroxymethyl)-5-methyl-spiro[isobenzofuran-1(3H),2′-[2H]pyran]-3′,4′,5′-triol]
- IC50 (human SGLT2): 2.6 nM
- inhibition in vivo at 0.3 mg/kg (db/db mice): ≥ 25%
